Assay: Peptide stability in fresh culture media (W0, MV, EMM)
Assay type: physicochemical
Description: Stability of the peptides was analyzed in freshly prepared media and in the supernatant from yeast cultivations in W0 and MV media. For this purpose, the yeast cultivations were initiated in 10 mL media with an optical density (OD600nm) of 1 and were cultivated for 24 h at 30 °C with continuous shaking. Subsequently, 2 mL of the culture was sampled and centrifuged at 5000 × g for 5 min. The resulting supernatant was removed and stored at -20 °C until LC–MS analysis. To study the time-dependent peptide stability, yeast supernatant and fresh culture medium with a volume of 900 µL each were spiked with 100 µL of a synthetic peptide mixture containing 10 µM of each α-factor and CSF in HPLC-grade water with 0.125% FA. The samples were analyzed immediately after sampling and subsequently over seven 3h intervals, in order to determine the remaining peptide concentrations. […]
The stability of the peptides also depends on their rate of enzymatic conversation through the action of proteases or peptidases (see review) secreted by cells during the cultivation. Therefore, the concentration of a peptide mixture (containing both α-factor and CSF) was monitored over a period of at least 18 h in the presence of fresh culture media or the supernatant of cultured yeast cells (harvested after 24 h). […]

| Peptide stability in EMM media (typical EMM media used for S. pombe, without and with 50 % ACN, LC-MS/MS, Fig. S7) | Concentration over 18 h in fresh culture media (fresh W0 pH = 5.6 or MV pH = 6.5, 1 µM peptide, glass vessels, 3 h intervals, LC-MS/MS normalized peak area, Fig. S5) | Substance |
| --- | --- | --- |
| demonstrated |  | TYADFL RAYQSW NTFVNP DRPNL [P-factor, pheromone from S. pombe, obtained from Davids Biotechnologie] |
|  | remained nearly constant | WHWLQLKPQPMY [α-factor, signal peptide (pheromone) from S. cerevisiae, ordered from UMEX GmbH] |

Reference: article PMC11876276, “LC–MS/MS quantification of bacterial and fungal signal peptides via direct injection: a case study of cross-kingdom communication” (Analytical and Bioanalytical Chemistry, 2025)
